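Five compound concentrations were applied to cells in 96-well plates for 48 hours; endpoints were derived by simple linear interpolation of the resulting dose-response curve. Definition used: TGI = concentration required for complete inhibition of growth.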
Experiments:
Experiment in all cases: growth of human tumour cells (NCI), 48 h
[1] = tested on: KM12 colon
[2] = tested on: SK-MEL-28 melanoma
[3] = tested on: OVCAR-3 ovarian
[4] = tested on: HS 578T breast
[5] = tested on: SNB-75 CNS
[6] = tested on: OVCAR-8 ovarian
[7] = tested on: A498 renal
[8] = tested on: HOP-62 NSCLC
[9] = tested on: HCT-116 colon
[10] = tested on: MDA-MB-435
[11] = tested on: IGROV1 ovarian
[12] = tested on: SR leukemia
[13] = tested on: UO-31 renal
[14] = tested on: HL-60(TB) leukemia
[15] = tested on: ACHN renal
[16] = tested on: SF-295 CNS
[17] = tested on: DU-145 prostate

CCOC(=O)C(NNS(=O)(=O)c1ccc(C)cc1)S(=O)(=O)C(F)(F)C(F)(F)C(F)(F)C(F)(F)F (stereo not given)
TGI [1]: > 100 µM | TGI [2]: > 100 µM | TGI [3]: > 100 µM | TGI [4]: > 100 µM | TGI [5]: > 100 µM | TGI [6]: > 100 µM | TGI [7]: > 100 µM | TGI [8]: > 100 µM | TGI [9]: > 100 µM | TGI [10]: > 100 µM | TGI [11]: > 100 µM | TGI [12]: > 100 µM | TGI [13]: > 100 µM | TGI [14]: > 100 µM | TGI [15]: > 100 µM | TGI [16]: > 100 µM | TGI [17]: > 100 µM

O=C1O/C(=C\c2ccc(O)c(Br)c2)C(c2ccc(O)cc2)=C1Cl
TGI [1]: > 100 µM | TGI [2]: > 100 µM | TGI [3]: 59.7 µM | TGI [4]: > 100 µM | TGI [5]: > 100 µM | TGI [6]: > 100 µM | TGI [7]: 77.7 µM | TGI [8]: > 100 µM | TGI [9]: > 100 µM | TGI [10]: > 100 µM | TGI [11]: > 100 µM | TGI [12]: > 100 µM | TGI [13]: > 100 µM | TGI [14]: > 100 µM | TGI [15]: > 100 µM | TGI [16]: > 100 µM | TGI [17]: > 100 µM

CCOC(=O)CSc1nc(-c2ccc(OC)cc2)c(C#N)c(=O)[nH]1
TGI [1]: > 100 µM | TGI [2]: > 100 µM | TGI [3]: > 100 µM | TGI [4]: > 100 µM | TGI [5]: > 100 µM | TGI [6]: > 100 µM | TGI [7]: > 100 µM | TGI [8]: > 100 µM | TGI [9]: > 100 µM | TGI [10]: > 100 µM | TGI [11]: > 100 µM | TGI [12]: > 100 µM | TGI [13]: > 100 µM | TGI [14]: > 100 µM | TGI [15]: > 100 µM | TGI [16]: > 100 µM | TGI [17]: > 100 µM

C[C@]12CC[C@@H]3c4ccc(OC(=O)c5ccccc5)cc4CC[C@H]3[C@@H]1CCC2OC(=O)c1cccc2c(=O)c3ccccc3[nH]c12 (stereo not given in full)
TGI [1]: 29.6 µM | TGI [2]: 30.6 µM | TGI [3]: > 100 µM | TGI [4]: 38.5 µM | TGI [5]: 55.8 µM | TGI [6]: 35.7 µM | TGI [7]: 64 µM | TGI [8]: 50.2 µM | TGI [9]: 30.5 µM | TGI [10]: 15.4 µM | TGI [11]: 33.3 µM | TGI [12]: > 100 µM | TGI [13]: 68.6 µM | TGI [14]: > 100 µM | TGI [15]: 46.8 µM | TGI [16]: 37.5 µM | TGI [17]: 42.6 µM

COC1Cc2c(C)c(OC(C)=O)c3cccnc3c2O1 (stereo not given)
TGI [1]: > 100 µM | TGI [2]: 53 µM | TGI [3]: 70.5 µM | TGI [4]: > 100 µM | TGI [5]: 31.7 µM | TGI [6]: 44.7 µM | TGI [7]: > 100 µM | TGI [8]: 90.9 µM | TGI [9]: > 100 µM | TGI [10]: 32.6 µM | TGI [11]: 37.3 µM | TGI [12]: 61.2 µM | TGI [13]: 27.3 µM | TGI [14]: 25.3 µM | TGI [15]: 22.8 µM | TGI [16]: 93.3 µM | TGI [17]: 31 µM

— PubChem BioAssay (NCI)
